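48-hour exposure; five concentrations; linearly interpolated endpoints. GI50 marks 50% less growth.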 The source made the active and inactive calls. Rule as the data show it: active = GI50 up to about 1.1 µM and inactive = higher.
Experiments:
Test in all cases: DTP human tumour cell line panel, 48 h
DLD-1 = system: DLD-1
DMS-114 = system: DMS-114
DMS-273 = system: DMS-273
HOP-18 = system: HOP-18
LXFL 529 = system: LXFL 529
M19-MEL = system: M19-MEL
RXF 631 = system: RXF 631
XF498 = system: XF498
T47D = system: T47D

Measured: GI50

O=c1ccccc2cccc(O)c12
inactive: DLD-1 > 100 µM | DMS-114 > 100 µM | DMS-273 > 100 µM | HOP-18 > 100 µM | LXFL 529 > 100 µM | M19-MEL > 100 µM | RXF 631 > 100 µM | XF498 > 100 µM

Cc1ccc(NC(=O)/C(=N/NC(=O)C[N+](C)(C)C)c2nc3ccccc3nc2O)cc1
inactive: DLD-1 > 100 µM | DMS-114 > 100 µM | DMS-273 > 100 µM | HOP-18 > 100 µM | LXFL 529 > 100 µM | M19-MEL > 100 µM | RXF 631 > 100 µM

COc1ccc(OCC(=O)O)c2c1CCC(C)C2=O (centres undefined)
inactive: DLD-1 > 100 µM | DMS-114 > 100 µM | DMS-273 > 100 µM | HOP-18 94.6 µM | M19-MEL > 100 µM | RXF 631 > 100 µM | XF498 > 100 µM

CCOC(=O)C(=O)Nc1c(N(CC)CC)n2ccccc2nc1=O
inactive: DLD-1 > 100 µM | DMS-114 > 100 µM | DMS-273 > 100 µM | LXFL 529 > 100 µM | M19-MEL > 100 µM | RXF 631 > 100 µM | XF498 > 100 µM

O=c1c(NO)c([N+](=O)[O-])cnn1-c1ccccc1
inactive: DLD-1 3.6 µM | DMS-114 15.8 µM | DMS-273 3.26 µM | HOP-18 22.1 µM | LXFL 529 1.76 µM | M19-MEL 3.67 µM | RXF 631 2.48 µM | T47D 1.83 µM | XF498 3.41 µM

Cc1ccc(NC(=O)CC2C(=O)Nc3ccccc3S2(=O)=O)cc1C (centres undefined)
inactive: DLD-1 > 100 µM | DMS-114 > 100 µM | DMS-273 > 100 µM | LXFL 529 > 100 µM | M19-MEL > 100 µM | RXF 631 > 100 µM | XF498 > 100 µM

O=c1ccn([C@H]2CSC[C@@H](CO)C2)c(=O)[nH]1
inactive: DLD-1 > 100 µM | DMS-114 > 100 µM | DMS-273 > 100 µM | HOP-18 > 100 µM | LXFL 529 > 100 µM | M19-MEL > 100 µM | RXF 631 > 100 µM

COC(=O)/C(=C/c1ccc(OC)cc1)C(C(=O)O)=C1CCCCC1
inactive: DLD-1 > 100 µM | DMS-273 > 100 µM | LXFL 529 > 100 µM | M19-MEL > 100 µM | RXF 631 > 100 µM | XF498 > 100 µM

CC(=O)NNc1nc(C)c(C(=O)/C=C/c2ccc(Cl)c(Cl)c2)s1
inactive: DLD-1 > 100 µM | DMS-114 > 100 µM | DMS-273 > 100 µM | HOP-18 > 100 µM | M19-MEL > 100 µM | RXF 631 > 100 µM

CN1C2(c3ccccc3)c3c(-c4ccccc4)sc(-c4ccccc4)c3C1(c1ccccc1)C1C(=O)N(c3ccccc3)C(=O)C12 (centres undefined)
inactive: DLD-1 > 100 µM | DMS-114 > 100 µM | DMS-273 > 100 µM | HOP-18 > 100 µM | LXFL 529 > 100 µM | M19-MEL > 100 µM | RXF 631 > 100 µM | XF498 > 100 µM

CS(=O)(=O)c1ccc(-c2cc(-c3ccc(S(C)(=O)=O)cc3)[n+](-c3cc(-c4ccccc4)c([O-])c(-c4ccccc4)c3)c(-c3ccc(S(C)(=O)=O)cc3)c2)cc1
inactive: DMS-114 > 100 µM | DMS-273 > 100 µM | HOP-18 > 100 µM | LXFL 529 > 100 µM | M19-MEL > 100 µM | RXF 631 > 100 µM | XF498 > 100 µM

Cc1ccccc1-n1c(=S)[nH]c2c(sc(=O)n2-c2ccccc2C)c1=O
inactive: DLD-1 > 100 µM | DMS-114 > 100 µM | DMS-273 > 100 µM | HOP-18 > 100 µM | LXFL 529 > 100 µM | M19-MEL > 100 µM | RXF 631 > 100 µM

CN(C)/C=N\c1cc[nH]c(=O)n1
inactive: DLD-1 > 100 µM | DMS-114 > 100 µM | DMS-273 > 100 µM | HOP-18 > 100 µM | LXFL 529 > 100 µM | M19-MEL > 100 µM | RXF 631 > 100 µM | XF498 > 100 µM

From ChEMBL document CHEMBL1201862, “PubChem BioAssay data set” (2004)
